According to the supplement of paper PMC11061612:

What was measured:
Test in all cases: Bliss excess, mean over the matrix (fraction); higher = more synergy
[1] = system: SK-LU-1 (Lung Adenocarcinoma)
Method in brief: (§1)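 Cell lines in DMEM/F12 or RPMI with 10% FBS were plated in 1536-well plates, held 24 hours at 37°C, 5% CO2, then given two-drug dose matrices for 72 hours (DMSO typically 0.2%). Viability was read by CellTiter-Glo 2.0 luminescence and scaled as inhibition from 0 (vehicle wells) to 1 (blank wells). Combination Emax is the second-highest inhibition in the matrix; Bliss excess is observed combination effect minus expected EA + EB − EA·EB, EA and EB being single-agent effects.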

[2] = system: DU-145 (Prostate Carcinoma)
Method in brief: as §1

[3] = system: EFO-21 (Ovarian Carcinoma)
Method in brief: as §1

EW-1 (Ewing's Sarcoma) = system: EW-1 (Ewing's Sarcoma)
Method in brief: as §1

[4] = system: EJM (Plasma Cell Myeloma)
Method in brief: as §1

[5] = system: KOPN-8 (B-Lymphoblastic Leukemia)
Method in brief: as §1

[6] = system: Ca-Ski (Cervical Carcinoma)
Method in brief: as §1

[7] = system: MDA-MB-453 (Breast Carcinoma)
Method in brief: as §1

[8] = system: MOG-G-UVW (Low Grade Glioma)
Method in brief: as §1

COLO-679 (Melanoma) = system: COLO-679 (Melanoma)
Method in brief: as §1

[9] = system: ME-180 (Cervical Carcinoma)
Method in brief: as §1

[10] = system: SW982 (Other Solid Carcinomas)
Method in brief: as §1

[11] = system: SNU-387 (Hepatocellular Carcinoma)
Method in brief: as §1

[12] = system: KGN (Other Solid Carcinomas)
Method in brief: as §1

SK-N-AS (Neuroblastoma) = system: SK-N-AS (Neuroblastoma)
Method in brief: as §1

[13] = system: OE33 (Esophageal Adenocarcinoma)
Method in brief: as §1

[14] = system: HCC1937 (Breast Carcinoma)
Method in brief: as §1

[15] = system: HAL-01 (B-Lymphoblastic Leukemia)
Method in brief: as §1

[16] = system: LC-1-sq (Squamous Cell Lung Carcinoma)
Method in brief: as §1

[17] = system: NCI-H1092 (Small Cell Lung Carcinoma)
Method in brief: as §1

Row | SMILES | Bliss excess [1] | Bliss excess [2] | Bliss excess [3] | Bliss excess (EW-1 (Ewing's Sarcoma)) | Bliss excess [4] | Bliss excess [5] | Bliss excess [6] | Bliss excess [7] | Bliss excess [8] | Bliss excess (COLO-679 (Melanoma)) | Bliss excess [9] | Bliss excess [10] | Bliss excess [11] | Bliss excess [12] | Bliss excess (SK-N-AS (Neuroblastoma)) | Bliss excess [13] | Bliss excess [14] | Bliss excess [15] | Bliss excess [16] | Bliss excess [17]
1 | Cn1cnc2c(F)c(Nc3ccc(Br)cc3Cl)c(C(=O)NOCCO)cc21 [Selumetinib] + C[C@@H]1COCCN1C2=NC(=NC(=C2)C3(CC3)[S@](=N)(=O)C)C4=C5C=CNC5=NC=C4 [AZD6738] (first compound max 10 µM, 7x7, partner max 10 µM) | -0.116 | -0.0441 | -0.0192 | 0.0014 | -0.0321 | -0.154 | 0.0396 | -0.05 | -0.0662 | -0.0526 | -0.0115 | -0.0499 | -0.0126 | -0.0817 | -0.0048 | -0.018 | 0.0414 | -0.0541 | 0.0238 | -0.0466
2 | CN(CCO)CC[C@H](CSc1ccccc1)Nc1ccc(S(=O)(=O)NC(=O)c2ccc(N3CCC([C@@H](O)c4ccccc4-c4ccc(Cl)cc4)CC3)cc2)cc1S(=O)(=O)C(F)(F)F [AZD4320] + C=CCn1c(=O)c2cnc(Nc3ccc(N4CCN(C)CC4)cc3)nc2n1-c1cccc(C(C)(C)O)n1 [AZD1775] (first compound max 1 µM, partner max 1 µM) | -0.038 | -0.0308 | -0.078 | 0.0581 | 0.0256 | 0.0016 | 0.0198 | 0.047 | -0.0193 | -0.0078 | -0.0304 | 0.0247 | 0.0102 | -0.0387 | -0.0292 | -0.0093 | 0.0878 | 0.0695 | 0.0279 | 0.0527
3 | Cn1cnc2c(F)c(Nc3ccc(Br)cc3Cl)c(C(=O)NOCCO)cc21 [Selumetinib] + CC(C)n1c(=O)n(C)c2cnc3cc(F)c(-c4ccc(OCCCN5CCCCC5)nc4)cc3c21 [AZD1390] (first compound max 10 µM, 7x7, partner max 0.3 µM) | -0.02 | -0.0312 | -0.026 | -0.0419 | -0.0131 | 0.0131 | -0.0032 | -0.0148 | 0.0397 | -0.0416 | -0.0521 | -0.0484 | -0.0512 | 0.0282 | -0.019 | -0.0277 | -0.0161 | 0.0741 | -0.0465 | -0.0468
4 | CS(=O)(=O)CCNCc1ccc(-c2ccc3ncnc(Nc4ccc(OCc5cccc(F)c5)c(Cl)c4)c3c2)o1 [Lapatinib] + NC1(c2ccc(-c3nc4ccn5c(=O)[nH]nc5c4cc3-c3ccccc3)cc2)CCC1 [MK-2206] (first compound max 10 µM, 7x7, partner max 10 µM) | -0.0239 | -0.0235 | 0.0024 | – | – | -0.0586 | 0.0103 | 0.0474 | 0.0675 | -0.031 | 0.0315 | -0.0099 | 0.0033 | 0.0078 | -0.0327 | -0.0133 | -0.0343 | 0.0687 | – | 0.0182
5 | Cc1c2c(nn1C)CSCc1cc(n(C)n1)CSc1cc(c3ccccc3c1)OCCCc1c(C(=O)O)n(C)c3c-2c(Cl)ccc13 [AZD5991] + CCN(CCO)CCCOc1ccc2c(Nc3cc(CC(=O)Nc4cccc(F)c4)[nH]n3)ncnc2c1 [AZD2811] (first compound max 1 µM, 7x7, partner max 1 µM) | -0.0306 | -0.0282 | -0.0065 | 0.0979 | 0.0504 | -0.0289 | 0.0869 | 0.125 | 0.0197 | 0.0115 | – | -0.0578 | -0.0333 | -0.0067 | 0.0414 | -0.002 | -0.0028 | 0.0012 | 0.0425 | 0.0479
6 | C=CCn1c(=O)c2cnc(Nc3ccc(N4CCN(C)CC4)cc3)nc2n1-c1cccc(C(C)(C)O)n1 [AZD1775] + C[C@@H]1COCCN1C2=NC(=NC(=C2)C3(CC3)[S@](=N)(=O)C)C4=C5C=CNC5=NC=C4 [AZD6738] (first compound max 1 µM, partner max 10 µM) | -0.0774 | 0.02 | -0.0492 | 0.0194 | -0.0079 | -0.0006 | 0.0052 | 0.0214 | 0.0202 | -0.0995 | -0.0022 | -0.019 | -0.0302 | -0.0578 | 0.0189 | -0.0081 | -0.0717 | – | 0.0139 | 0.0124
7 | C[C@@H]1COCCN1c1cc(C2([S@](C)(=N)=O)CC2)nc(-c2ccnc3[nH]ccc23)n1 [AZD6738] + Nc1ccn([C@@H]2O[C@H](CO)[C@@H](O)C2(F)F)c(=O)n1 [Gemcitabine] (first compound max 10 µM, 7x7, partner max 0.3 µM) | -0.0668 | 0.0742 | 0.0847 | – | – | – | 0.0982 | -0.0251 | 0.0856 | -0.0611 | 0.0564 | 0.0352 | 0.0597 | 0.0065 | 0.0469 | -0.0518 | – | -0.0031 | – | –
8 | Cc1c2c(nn1C)CSCc1cc(n(C)n1)CSc1cc(c3ccccc3c1)OCCCc1c(C(=O)O)n(C)c3c-2c(Cl)ccc13 [AZD5991] + Nc1ccn([C@@H]2O[C@H](CO)[C@@H](O)C2(F)F)c(=O)n1 [Gemcitabine] (first compound max 1 µM, 7x7, partner max 0.3 µM) | -0.0518 | -0.0284 | -0.0204 | – | – | – | 0.0354 | 0.0145 | 0.0085 | -0.0703 | -0.036 | -0.0594 | -0.0021 | -0.0457 | 0.0183 | 0.0018 | – | 0.0025 | – | –
9 | Cc1nc(-c2cn3c(n2)-c2ccc(-c4cnn(C(C)(C)C(N)=O)c4)cc2OCC3)n(C(C)C)n1 [Taselisib] + O=C(Nc1ccc2[nH]nc(-c3ccncc3)c2c1)[C@@H]1CCN(CC(=O)N2CCN(c3ccc(-c4ncccn4)cc3)CC2)C1 [SCH772984] (first compound max 10 µM, 7x7, partner max 5 µM) | 0.0898 | 0.0551 | 0.0446 | – | – | – | 0.0833 | 0.0207 | 0.0333 | -0.0148 | 0.0324 | -0.0167 | 0.122 | 0.0378 | 0.0187 | 0.0674 | – | -0.0711 | – | –
10 | CS(=O)(=O)CCNCc1ccc(-c2ccc3ncnc(Nc4ccc(OCc5cccc(F)c5)c(Cl)c4)c3c2)o1 [Lapatinib] + Cn1cnc2c(F)c(Nc3ccc(Br)cc3Cl)c(C(=O)NOCCO)cc21 [Selumetinib] (first compound max 10 µM, 7x7, partner max 10 µM) | -0.0145 | 0.0008 | 0.0118 | – | – | – | -0.0185 | -0.0421 | 0.024 | -0.116 | -0.028 | 0.034 | 0.0212 | 0.0232 | 0.0034 | -0.0143 | – | 0.0997 | – | –
11 | C=CCn1c(=O)c2cnc(Nc3ccc(N4CCN(C)CC4)cc3)nc2n1-c1cccc(C(C)(C)O)n1 [AZD1775] + Nc1ccn([C@@H]2O[C@H](CO)[C@@H](O)C2(F)F)c(=O)n1 [Gemcitabine] (first compound max 1 µM, partner max 0.3 µM) | -0.0837 | -0.0385 | -0.0653 | – | – | – | 0.0644 | -0.0309 | 0.0183 | -0.067 | 0.0154 | -0.0248 | -0.0035 | 0.0009 | -0.0254 | -0.0157 | – | -0.0026 | – | –
12 | C[C@@H]1COCCN1c1cc(C2([S@](C)(=N)=O)CC2)nc(-c2ccnc3[nH]ccc23)n1 [AZD6738] + C1CC(C1)(C(=O)[O-])C(=O)[O-].N.N.[Pt+2] [Carboplatin] (first compound max 10 µM, 7x7, partner max 10 µM) | -0.0088 | -0.043 | -0.0606 | – | – | – | 0.0041 | -0.0327 | -0.0044 | -0.0944 | -0.013 | -0.0453 | -0.0308 | -0.0084 | -0.0538 | -0.0416 | – | -0.0435 | – | –
13 | C[C@@H](Nc1cc(F)cc(F)c1)c1cc(C(=O)N(C)C)cc2c(=O)cc(N3CCOCC3)oc12 [AZD8186] + CC(=O)c1c(C)c2cnc(Nc3ccc(N4CCNCC4)cn3)nc2n(C2CCCC2)c1=O [Palbociclib] (first compound max 10 µM, 7x7, partner max 10 µM) | 0.0599 | 0.0147 | -0.0175 | – | – | – | -0.0285 | 0.0491 | 0.11 | -0.0735 | 0.0177 | 0.0551 | -0.0459 | 0.0548 | 0.0334 | 0.0115 | – | -0.0022 | – | –
14 | C[C@@H](Oc1cc(-c2cnn(C3CCNCC3)c2)cnc1N)c1c(Cl)ccc(F)c1Cl [Crizotinib] + CC1=C(C(=CC=C1)Cl)NC(=O)C2=CN=C(S2)NC3=CC(=NC(=N3)C)N4CCN(CC4)CCO [Dasatinib] (first compound max 10 µM, 7x7, partner max 2 µM) | 0.02 | 0.0158 | 0.0054 | – | – | – | 0.0454 | -0.0494 | 0.182 | -0.0604 | 0.038 | 0.0386 | 0.0371 | -0.0204 | -0.0164 | 0.0828 | – | -0.0172 | – | –
15 | CC1(C)CCC(CN2CCN(c3ccc(C(=O)NS(=O)(=O)c4ccc(NCC5CCOCC5)c([N+](=O)[O-])c4)c(Oc4cnc5[nH]ccc5c4)c3)CC2)=C(c2ccc(Cl)cc2)C1 [Venetoclax] + CS(=O)(=O)CCNCc1ccc(-c2ccc3ncnc(Nc4ccc(OCc5cccc(F)c5)c(Cl)c4)c3c2)o1 [Lapatinib] (first compound max 1 µM, 7x7, partner max 10 µM) | -0.0772 | -0.0511 | -0.0323 | – | – | – | -0.0249 | -0.0106 | -0.0012 | -0.0634 | 0.0153 | -0.0456 | -0.0514 | -0.0609 | -0.0432 | -0.0315 | – | 0.102 | – | –
16 | CN(CCO)CC[C@H](CSc1ccccc1)Nc1ccc(S(=O)(=O)NC(=O)c2ccc(N3CCC([C@@H](O)c4ccccc4-c4ccc(Cl)cc4)CC3)cc2)cc1S(=O)(=O)C(F)(F)F [AZD4320] + CS(=O)(=O)CCNCc1ccc(-c2ccc3ncnc(Nc4ccc(OCc5cccc(F)c5)c(Cl)c4)c3c2)o1 [Lapatinib] (first compound max 1 µM, 7x7, partner max 10 µM) | -0.0415 | -0.028 | -0.0104 | – | – | – | 0.127 | -0.0554 | 0.0193 | -0.106 | 0.0726 | 0.0799 | 0.0496 | -0.0448 | -0.0397 | 0.0519 | – | 0.193 | – | –
